Source: patent US8143254B2, “Methods for modulating ion channels” (Cornell Research Foundation, Inc., priority 2005, dated 2012)

Biological target: T1, Kv3.4 (UniProt Q63734)
T1 construct: IC50; other: Kv3.4, logistic dose response fit; effect on Kv3.4 currents; other: 1 mM, bath applied; slope of dose response curve; other: Kv3.4
T1 sequence (Q63734 1-625): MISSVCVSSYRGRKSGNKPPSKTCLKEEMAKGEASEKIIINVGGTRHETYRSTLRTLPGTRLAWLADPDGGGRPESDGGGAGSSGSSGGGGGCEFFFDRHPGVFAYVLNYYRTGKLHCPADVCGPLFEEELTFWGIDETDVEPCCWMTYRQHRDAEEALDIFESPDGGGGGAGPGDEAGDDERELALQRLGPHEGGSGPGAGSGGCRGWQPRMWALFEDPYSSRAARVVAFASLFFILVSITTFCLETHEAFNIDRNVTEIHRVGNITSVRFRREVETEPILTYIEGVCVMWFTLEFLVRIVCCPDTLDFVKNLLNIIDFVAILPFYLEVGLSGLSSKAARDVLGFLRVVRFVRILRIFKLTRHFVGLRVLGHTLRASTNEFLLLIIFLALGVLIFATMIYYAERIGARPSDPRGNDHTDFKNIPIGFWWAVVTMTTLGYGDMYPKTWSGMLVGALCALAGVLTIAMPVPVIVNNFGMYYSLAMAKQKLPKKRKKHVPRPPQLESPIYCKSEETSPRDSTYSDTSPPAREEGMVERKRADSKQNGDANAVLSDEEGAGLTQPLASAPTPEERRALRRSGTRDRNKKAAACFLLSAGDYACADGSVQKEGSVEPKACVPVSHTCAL
Experiment: TEVC of X. laevis oocytes expressing Kv3.4
Type: cell-based
Details: for slope of dose response curve: Kv3.4; for IC50: Kv3.4, logistic dose response fit; for effect on Kv3.4 currents: 1 mM, bath applied
Excerpt: Kv2.1 mutants were constructed using the QuickChange Multi Site-Directed Mutagenesis Kit (Stratagene, La Jolla, Calif.). […] For oocyte expression, Kv3.4 was in pBF1, Kv4.2 was in pRAT. cRNA transcripts were produced from SacII-linearized (Kv2.1), Mlullinearized (Kv3.4) and Not1-linearized (Kv4.2) DNA templates using the T3 (Kv2.1), SP6 (Kv3.4) and T7 (Kv4.2) mMessage mMachine kits (Ambion, Austin, Tex.). cRNA was quantified by spectrophotometry and its size integrity verified by gel electophoresis. Defolliculated stage V and VI Xenopus laevis oocytes (purchased from Nasco, Grand Island, N.Y.) were injected with 5 ng of cRNA encoding Kv2.1, Kv3.4 or Kv4.2. Chinese Hamster Ovary (CHO) cells were transfected with 0.25 μg Kv2.1 cDNA, 2 μg blank plasmid and 2 μg Green fluorescent Protein in pBOB using Supetfect transfection reagent (Qiagen) 24 hours before whole-cell voltage clamp studies.
Oocytes were bathed in a small-volume Warner oocyte bath and viewed with a Fisher dissection microscope. Bath solution for whole-cell oocyte recordings was (in mM): 96 NaCl, 4 KCl, 0.7 MgCl2, 1 CaCl2, 10 HEPES (pH 7.4); whole-cell oocyte TEVC pipettes were of 0.2-2 M resistance when filled with 3 M KCl. Experiments were performed 24-48 hours after cRNA injection. For assessment of current-voltage relationships in the absence or presence of dabco derivatives, oocytes were held at −80 mV, stepped for 2 seconds at voltages between −80 mV and +60 mV in 20 mV steps (Kv2.1) or between −80 and +50 mV in 10 mV steps (Kv3.4), then held for 500 ms at −40 mV before returning to the holding potential. For assessment of block during wash-in of dabco derivatives at a single voltage, oocytes were held at −80 mV, and repetitively stepped to 0 mV for 2 s with an interpulse interval of 10 s or 60 s as indicated. A range of concentrations of dabco or dabco derivatives were washed in via the bath solution during repetitive single-voltage pulses (after an initial period of 5 pulses with control solution to ensure current stabilization) until equilibrium block was achieved, to establish dose-responses. […] Washout was performed after the highest concentration of blocker was washed in. In cases where washout was achieved, only those recordings in which current returned to within 10% of original current level were used for construction of dose-response curves. […] As controls for this protection analysis, JC638.2a or MTSET were washed in alone until equilibrium block, then washed out.
Data analysis: Current-voltage relationships were obtained by measuring peak current during depolarizing pulses. Inhibition constants for DABCO blockers were calculated after generating a dose response curve by fitting with a logistic dose-response function y=A2+[A1−A2/1+(x/x0)^p], where A1 is the maximum response plateau, A2 is the minimum response plateau, x is drug concentrator, x0 is the IC50, and p the Hill slope. Data analysis was performed using […] 9 (Axon Instruments, Foster City, Calif.) and tabulated in Excel 5.0. Graphs were generated using Origin 6.1. Data are expressed as mean±SEM, with n specifying the number of independent experiments. Statistical significance was assessed by one-way ANOVA with p<0.05 being indicative of significance.

CCCCCCCCCCCC[N+]12CCN(CC1)CC2 [JE188, 1-aza-4-azonia-4-dodecylbicyclo[2.2.2]octane]
slope of dose response curve: 0.7±0.1 | IC50: 34.2 ± 10 µM

c1cc(C[N+]23CCN(CC2)CC3)ccc1C[N+]12CCN(CC1)CC2 [JC638.2α, α,α′-[bis(4-aza-1-azoniabicyclo[2.2.2]octanyl)]p-xylene]
effect on Kv3.4 currents: significant inhibition | slope of dose response curve: 1.3±0.2 | IC50: 129 ± 20.7 µM

C(CC[N+]12CCN(CC1)CC2)C[N+]12CCN(CC1)CC2 [TG26]
effect on Kv3.4 currents: less effective than TG27

CCCCCCCCCCCCCCCC[N+]12CCN(CC1)CC2 [TA279, 1-aza-4-azonia-4-hexadecylbicyclo[2.2.2]octane]
slope of dose response curve: 2.8±1.1 | IC50: 0.6 ± 0.1 µM
